Laboratory results published in ChEMBL document CHEMBL1144972, “Benzo[f]naphtyridones: a new family of topical antibacterial agents active on multi-resistant Gram-positive pathogens” (2003).
In brackets after ≈: the same amount, converted by molar mass.

Legend:
Format in all cases: functional
Staphylococcus aureus [1] = test: Minimum inhibitory concentration against Staphylococcus aureus AS5155
Streptococcus pyogenes = test: Minimum inhibitory concentration against Streptococcus pyogenes Dig 7
Staphylococcus aureus [2] = test: Minimum inhibitory concentration against Staphylococcus aureus RN4220

SMILES	MIC (Staphylococcus aureus [1])	MIC (Streptococcus pyogenes)	MIC (Staphylococcus aureus [2])
Cn1cc(C(=O)O)c(=O)c2c3ccc(F)c(N4CCN(c5cccc(C(F)(F)F)c5)CC4)c3ncc21	4 µg/mL (≈ 7.99 µM)	16 µg/mL (≈ 32 µM)	2 µg/mL (≈ 4 µM)
Cn1cc(C(=O)O)c(=O)c2c3cc(F)c(N4CCCC(C)(C)C4)cc3ncc21	4 µg/mL (≈ 10.4 µM)	4 µg/mL (≈ 10.4 µM)	4 µg/mL (≈ 10.4 µM)
C[N+](C)(C)CCO.Cn1cc(C(=O)[O-])c(=O)c2cc3cc(F)c(N4CCN(c5ccc(F)cc5)CC4)cc3nc21	2 µg/mL	0.5 µg/mL	0.25 µg/mL
Cc1ccc(N2CCN(c3ccc4c(ncc5c4c(=O)c(C(=O)O)cn5C)c3F)CC2)cc1F	2 µg/mL (≈ 4.31 µM)	16 µg/mL (≈ 34.4 µM)	4 µg/mL (≈ 8.61 µM)
CCn1cc(C(=O)O)c(=O)c2cc(F)c(N3CCN(C)CC3)cc21 [PEFLOXACIN]	64 µg/mL (≈ 192 µM)	8 µg/mL (≈ 24 µM)	0.5 µg/mL (≈ 1.5 µM)

Other lines, results leading:

MIC (Staphylococcus aureus [1])	MIC (Streptococcus pyogenes)	MIC (Staphylococcus aureus [2])	SMILES
2 µg/mL (≈ 4.72 µM)	4 µg/mL (≈ 9.45 µM)	2 µg/mL (≈ 4.72 µM)	Cn1cc(C(=O)O)c(=O)c2c3cc(N4C[C@@]5(C)C[C@@H]4CC(C)(C)C5)c(F)cc3ncc21
1 µg/mL (≈ 2 µM)	2 µg/mL (≈ 4.01 µM)	1 µg/mL (≈ 2 µM)	Cc1ccc(N2CCN(c3cc4c(ncc5c4c(=O)c(C(=O)O)cn5C)c(F)c3Cl)CC2)cc1F
1 µg/mL (≈ 1.93 µM)	16 µg/mL (≈ 30.8 µM)	2 µg/mL (≈ 3.85 µM)	Cn1cc(C(=O)O)c(=O)c2c3cc(N4CCN(c5ccc(Cl)c(F)c5)CC4)c(Cl)c(F)c3ncc21
1 µg/mL (≈ 2 µM)	0.12 µg/mL (≈ 0.24 µM)	0.5 µg/mL (≈ 0.999 µM)	C/C(=C\C(=O)OCCCCCCCCC(=O)O)C[C@@H]1OC[C@H](C[C@@H]2O[C@H]2[C@@H](C)[C@H](C)O)[C@@H](O)[C@H]1O [MUPIROCIN]
